Measured values taken from US10280163B2 (BeiGene, Ltd., priority 2015, dated 2019).
pEC50: −log10 of the molar value. Read-outs that look alike come from different tables or passages of the source.

What was measured:
[1] = target: T1, Recombinant TDO (Homo sapiens, UniProt P48775); assay: TDO enzymatic assay; type: biochemical; conditions: Table 1, 5-substituted imidazo[1,5-a]pyridines; 100 nM TDO, 0.5 mM L-tryptophan; read-out: Enzyme IC50 (nM) TDO
T1 construct: His tag (C); made in house; host or cells: E. coli
Experimental: Recombinant TDO was overexpressed and purified from E. coli cells with a C-terminal His tag. TDO enzymatic assay was performed using the same methodology as IDO1 enzymatic assay except that 100 nM TDO and 0.5 mM L-tryptophan (Km concentration) were used in the TDO assay.

[2] = target: T2, Recombinant IDO1 (Homo sapiens, UniProt P14902); assay: IDO1 enzymatic assay; type: biochemical; conditions: 50 nM IDO1, 1.3 mM D-tryptophan, read-out: Enzyme IC50 (nM) IDO1
T2 construct: His tag (N); made in house; host or cells: E. coli
Experimental: Recombinant IDO1 was overexpressed and purified from E. coli cells with an N-terminal His tag. IDO1 enzymatic assay was carried out using a methodology similar to described in the literature (J. Biol. Chem. (1980), 255, 1339-1345.). The reaction mixture contains 50 nM IDO1, 1.3 mM D-tryptophan, 5 mM L-ascorbic acid, 6.25 μM methylene Blue, 0.4 mg/mL catalase and compound (or DMSO) in a buffer containing 50 mM potassium phosphate pH 7.5 and 0.1% BSA. After incubation at 24° C. for 1.5 hours, absorbance of the reaction mixture was continuously read at 321 nm to monitor the formation of N′-formylkynurenine by a FULOstar OMEGA plate reader (BMG LABTECH) for 1 hour. The enzymatic activity was determined by measuring the slope of the linear absorbance increase as a function of time. The IC50s are calculated based on remaining enzyme activity in the presence of increasing concentrations of compounds.

[3] = target: T3, cellular IDO1 in HeLa cells (Homo sapiens, UniProt P14902); assay: HeLa cell-based IDO1 Kyn (kynurenine) production assay; conditions: IFN-γ 100 ng/mL, 48 hours
T3 construct: endogenous in cells; host or cells: HeLa cells (American Type Tissue Culture Collection), induced with human recombinant IFN-γ
Experimental: HeLa Cell-Based IDO1 Kyn (Kynurenine) Production Assay:
The inhibitory activity of IDO1 inhibitors is determined by using a colorimetric reaction to measure Kyn generated from L-Trp (L-Tryptophon) oxidation by cellular IDO1 in HeLa cells after induction of IDO1 by IFN-γ.
Hela cells were obtained from the American Type Tissue Culture Collection and recovered in 10% FBS-containing phenol red-free DMEM medium supplemented with 0.4 mM L-Trp. Cells were plated onto a 96-well plate (100 μl/well) at 8000 cells per well. Human recombinant IFN-γ (8901SC, CST) was added to cells (final concentration 100 ng/mL) to stimulate endogenous IDO1. Compounds at different concentrations diluted in dimethylsulfoxide (DMSO) were added simultaneously with IFN-γ. Cells were kept at 37° C. in a humidified incubator supplied with 5% CO2. After 48 hours of incubation, 100 μl supernatant from each well was removed to a new plate. The protein in the medium was precipitated with the addition of 8 μl 6N trichloroacetic acid. The plate was incubated at 60° C. for 45 min and then centrifugation at 2500 rpm for 10 min to remove sediments. 80 μl supernatants were carefully removed to a new clean plate and added with an equal volume of 2% 4-(Dimethylamino) benzaldehyde (D2004, sigma) dissolved in glacial acetic acid. The absorbance at 480 nm wavelength derived from Kyn was measured using a FULOstar OMEGA plate reader (BMG LABTECH). The IC50 for each compound was derived from fitting the dose-response data to the four-parameter logistic model by using Graphpad Prism software.

[4] = Table 1, 5-substituted imidazo[1,5-a]pyridines
[5] = Table 2, 8-substituted imidazo[1,5-a]pyridines

T2 sequence (P14902 whole entry): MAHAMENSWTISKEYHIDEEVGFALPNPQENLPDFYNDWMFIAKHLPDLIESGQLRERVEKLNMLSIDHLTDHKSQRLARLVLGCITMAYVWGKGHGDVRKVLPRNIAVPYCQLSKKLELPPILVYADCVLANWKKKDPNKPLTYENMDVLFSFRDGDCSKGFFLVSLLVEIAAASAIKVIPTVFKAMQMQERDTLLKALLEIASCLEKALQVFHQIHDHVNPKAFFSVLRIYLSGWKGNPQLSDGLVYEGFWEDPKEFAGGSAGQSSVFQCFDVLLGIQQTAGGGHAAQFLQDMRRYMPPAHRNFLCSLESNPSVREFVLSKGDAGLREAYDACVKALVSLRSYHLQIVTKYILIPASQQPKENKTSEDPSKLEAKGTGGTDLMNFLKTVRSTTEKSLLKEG
T3 sequence (P14902 whole entry): as above
T1 sequence (P48775 whole entry): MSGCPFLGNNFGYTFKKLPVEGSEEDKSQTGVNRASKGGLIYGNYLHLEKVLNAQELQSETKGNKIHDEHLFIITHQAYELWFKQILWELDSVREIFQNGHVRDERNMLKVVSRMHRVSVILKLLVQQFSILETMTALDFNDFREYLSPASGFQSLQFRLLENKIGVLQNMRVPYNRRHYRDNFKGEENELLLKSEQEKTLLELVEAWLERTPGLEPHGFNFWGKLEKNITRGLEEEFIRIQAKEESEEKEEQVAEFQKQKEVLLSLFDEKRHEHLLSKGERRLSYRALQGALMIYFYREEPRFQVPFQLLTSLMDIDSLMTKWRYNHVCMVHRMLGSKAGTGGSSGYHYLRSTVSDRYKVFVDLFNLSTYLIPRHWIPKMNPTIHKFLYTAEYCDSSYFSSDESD

SMILES | IC50 [1] [nM] | IC50 [2, 4] [nM] | pEC50 [3, 4] | pEC50 [3, 5] | IC50 [2, 5] [nM]
OC(CC1CCCCC1)c1c(C2CC2)ccc2cncn12 (single isomer, unassigned) [Example A139a] | 1800 | 11 |  |  | 
OC(CC1CCCCC1)c1c(C2CC2)ccc2cncn12 (single isomer, unassigned) [Example A139b] | 13000 | 4500 |  |  | 
OC1CC2CC1CC2C(O)c1c(C2CC2)ccc2cncn12 (centres unmarked) [Example A165, 5-((6-cyclopropylimidazo[1,5-a]pyridin-5-yl)(hydroxy)methyl)bicyclo[2.2.1]heptan-2-ol] |  | 430 | 5.92 |  | 
OC(CC1CC1)c1cccn2cncc12 (centres unmarked) [Example B007, 2-cyclopropyl-1-(imidazo[1,5-a]pyridin-8-yl)ethan-1-ol] |  |  |  | < 5.00 | 6600
CC(O)(CC1CCCCC1)c1cccn2cncc12 (centres unmarked) [Example B009, 1-cyclohexyl-2-(imidazo[1,5-a]pyridin-8-yl)propan-2-ol] |  |  |  | < 5.00 | 18000
OC(CCc1cccn2cncc12)C1CCCCC1 (centres unmarked) [Example B010, 1-Cyclohexyl-3-(imidazo[1,5-a]pyridin-8-yl)propan-1-ol] |  |  |  | < 5.00 | 14000
CC(C)(C)c1ccn2cncc2c1C(O)C1CCCCC1 (centres unmarked) [Example B113, (7-(tert-Butyl)imidazo[1,5-a]pyridin-8-yl)(cyclohexyl)methanol] |  |  |  | 5.03 | 1300
C=CC(O)c1c(C2CC2)ccn2cncc12 (centres unmarked) [Example B115, 1-(7-Cyclopropylimidazo[1,5-a]pyridin-8-yl)prop-2-en-1-ol] |  |  |  | < 5.00 | 120
CC(C)c1ccn2cncc2c1C(O)C1CCC(O[Si](C)(C)C(C)(C)C)CC1 (centres unmarked) [Example B120, (4-((tert-Butyldimethylsilyl)oxy)cyclohexyl)(7-isopropylimidazo[1,5-a]pyridin-8-yl)methanol] |  |  |  | < 5.00 | 790
O=C(NC1CC1)c1cccc(C(O)c2c(C3CC3)ccn3cncc23)c1 (centres unmarked) [Example B125, N-cyclopropyl-3-((7-cyclopropylimidazo[1,5-a]pyridin-8-yl)(hydroxy)methyl)benzamide] |  |  |  | 5.07 | 170
O=C(OCc1ccccc1)N1CCCC(C(O)c2c(C3CC3)ccn3cncc23)C1 (centres unmarked) [Example B129, Benzyl-3-((7-cyclopropylimidazo[1,5-a]pyridin-8-yl)(hydroxy)methyl) piperidine-1-carboxylate] |  |  |  | < 5.00 | 310
CC(C)(C)OC(=O)NCC(=O)N1CCCC(C(O)c2c(C3CC3)ccn3cncc23)C1 (centres unmarked) [Example B131, tert-Butyl (2-(3-((7-cyclopropylimidazo[1,5-a]pyridin-8-yl)(hydroxy)methyl)piperidin-1-yl)-2-oxoethyl) carbamate] |  |  |  | < 5.00 | 1700
NCC(=O)N1CCCC(C(O)c2c(C3CC3)ccn3cncc23)C1 (centres unmarked) [Example B132, 2-Amino-1-(3-((7-cyclopropylimidazo[1,5-a]pyridin-8-yl)(hydroxy)methyl)piperidin-1-yl)ethan-1-one] |  |  |  | < 5.00 | 13000
O=C(c1ccccc1)N1CCCC(C(O)c2c(C3CC3)ccn3cncc23)C1 (centres unmarked) [Example B134, (3-((7-Cyclopropylimidazo[1,5-a]pyridin-8-yl)(hydroxy)methyl)piperidin-1-yl)(phenyl) methanone] |  |  |  | < 5.00 | 2000
O=C(O)C1CCCC(C(O)c2c(C3CC3)ccn3cncc23)C1 (centres unmarked) [Example B138, 3-((7-Cyclopropylimidazo[1,5-a]pyridin-8-yl)(hydroxy)methyl)cyclohexane-1-carboxylic acid] |  |  |  | < 5.00 | 1000
OC1CC2CC1CC2C(O)c1c(C2CC2)ccn2cncc12 (centres unmarked) [Example B142, 5-((7-cyclopropylimidazo[1,5-a]pyridin-8-yl)(hydroxy)methyl)bicyclo[2.2.1]heptan-2-ol] |  |  |  | 5.20 | 1300

Further lines, results first:

IC50 [1] [nM] | IC50 [2, 4] [nM] | pEC50 [3, 4] | pEC50 [3, 5] | IC50 [2, 5] [nM] | SMILES
 |  |  | 6.38 | 85 | OC(c1c(C(F)(F)F)ccn2cncc12)C1CCCCC1 (centres unmarked) [Example B111, Cyclohexyl(7-(trifluoromethyl)imidazo[1,5-a]pyridin-8-yl)methanol]
 |  |  | 5.78 | 530 | OC(c1c(C2CC2)ccn2cncc12)C1CCOCC1 (centres unmarked) [Example B112, (7-Cyclopropylimidazo[1,5-a]pyridin-8-yl)(tetrahydro-2H-pyran-4-yl)methanol]
 |  |  | 5.52 | 630 | OC(c1c(C2CCC2)ccn2cncc12)C1CCCCC1 (centres unmarked) [Example B114, (7-Cyclobutylimidazo[1,5-a]pyridin-8-yl)(cyclohexyl)methanol]
 |  |  | 5.34 | 61 | OC(c1c(Cl)ccn2cncc12)C1CC=CCC1 (centres unmarked) [Example B116, (7-Chloroimidazo[1,5-a]pyridin-8-yl)(cyclohex-3-en-1-yl)methanol]
 |  |  | 6.40 | 1100 | OC(c1c(C2CC2)ccn2cncc12)C1C2CC3CC(C2)CC1C3 (centres unmarked) [Example B117, (Adamantan-2-yl)(7-cyclopropylimidazo[1,5-a]pyridin-8-yl)methanol]
 |  |  | 6.75 | 280 | OC(CC12CC3CC(CC(C3)C1)C2)c1c(C2CC2)ccn2cncc12 (centres unmarked) [Example B118, 2-(Adamantan-1-yl)-1-(7-cyclopropylimidazo[1,5-a]pyridin-8-yl)ethan-1-ol]
 |  |  | 6.94 | 53 | OC(c1c(C2CC2)ccn2cncc12)C1CC2CCC1C2 (centres unmarked) [Example B122, bicyclo[2.2.1]heptan-2-yl(7-cyclopropylimidazo[1,5-a]pyridin-8-yl)methanol]
 |  |  | 7.48 | 58 | O[C@H](c1c(C2CC2)ccn2cncc12)[C@H]1C[C@H]2CC[C@@H]1C2 [Example B122a, (S)-((1R,2S,4S)-bicyclo[2.2.1]heptan-2-yl)(7-cyclopropylimidazo[1,5-a]pyridin-8-yl)methanol]
 |  |  | 6.12 | 260 | OC(c1c(C2CC2)ccn2cncc12)C1CC2C=CC1CC2 (centres unmarked) [Example B123, Bicyclo[2.2.2]oct-5-en-2-yl(7-cyclopropylimidazo[1,5-a]pyridin-8-yl)methanol]
 |  |  | 6.42 | 440 | OC(c1c(C2CC2)ccn2cncc12)C1CC2CCC1CC2 (centres unmarked) [Example B124, Bicyclo[2.2.2]octan-2-yl(7-cyclopropylimidazo[1,5-a]pyridin-8-yl)methanol]
 |  |  | 6.54 | 760 | OCC1(C(O)c2c(C3CC3)ccn3cncc23)CCCCC1 (centres unmarked) [Example B136, (7-Cyclopropylimidazo[1,5-a]pyridin-8-yl)(1-(hydroxymethyl)cyclohexyl)methanol]
 |  |  | 5.48 | 2200 | CCOC(COCC1(C(O)c2c(C3CC3)ccn3cncc23)CCCCC1)OCC (centres unmarked) [Example B137, (7-Cyclopropylimidazo[1,5-a]pyridin-8-yl)(1-((2,2-diethoxyethoxy)methyl)cyclohexyl)methanol]
 |  |  | 6.70 | 85 | OC(c1c(C2CC2)ccn2cncc12)C1CC2CC2C1 (centres unmarked) [Example B139, bicyclo[3.1.0]hexan-3-yl(7-cyclopropylimidazo[1,5-a]pyridin-8-yl)methanol]
 |  |  | 6.83 | 71 | OC(c1c(C2CC2)ccn2cncc12)C1CCC2CC2C1 (centres unmarked) [Example B140, bicyclo[4.1.0]heptan-3-yl(7-cyclopropylimidazo[1,5-a]pyridin-8-yl)methanol]
 |  |  | 5.77 | 45 | OC(c1c(C2CC2)ccn2cncc12)C1C=CCCC1 (centres unmarked) [Example B141, cyclohex-2-en-1-yl(7-cyclopropylimidazo[1,5-a]pyridin-8-yl)methanol]
